Source: ChEMBL document CHEMBL4425164, “5-Alkyl-2-urea-Substituted Pyridines: Identification of Efficacious Glucokinase Activators with Improved Properties” (ACS Med Chem Lett, 2016)
≈ marks a conversion by molar mass, not a printed value.

Tests used:
[1] = target: T1, Hexokinase-4 (Homo sapiens) (UniProt P35557); assay: Activation of human recombinant glucokinase assessed as enzyme affinity for glucose […] as substrate in presence of NAD+ by glucose 6-phosphate dehydrogenase coupled assay
T1 sequence (whole entry): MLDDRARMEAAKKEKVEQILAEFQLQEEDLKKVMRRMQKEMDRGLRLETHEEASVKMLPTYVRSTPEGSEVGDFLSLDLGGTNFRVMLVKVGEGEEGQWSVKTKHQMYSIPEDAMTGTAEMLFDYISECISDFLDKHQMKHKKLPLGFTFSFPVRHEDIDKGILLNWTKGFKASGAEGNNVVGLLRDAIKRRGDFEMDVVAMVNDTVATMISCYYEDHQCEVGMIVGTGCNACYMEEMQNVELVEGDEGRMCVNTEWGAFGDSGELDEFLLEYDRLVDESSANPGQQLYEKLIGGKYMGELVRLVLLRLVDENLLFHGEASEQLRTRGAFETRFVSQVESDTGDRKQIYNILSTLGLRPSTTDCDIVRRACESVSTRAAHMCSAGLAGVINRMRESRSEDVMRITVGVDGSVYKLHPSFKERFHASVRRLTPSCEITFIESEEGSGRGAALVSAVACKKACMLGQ

Hexokinase-4 [2] = target: T2, Hexokinase-4 (Homo sapiens, UniProt P35557); assay: Activation of human recombinant glucokinase using 5 mM glucose as substrate in presence of NAD+ and 4% HSA by glucose 6-phosphate dehydrogenase coupled assay
T2 sequence (P35557 whole entry): T1 sequence (whole entry)

[3] = target: T1, Hexokinase-4 (Homo sapiens); assay: Activation of human recombinant glucokinase assessed as Vmax ratio using 0.16 to 80 mM of glucose as substrate in presence of NAD+ by glucose 6-phosphate dehydrogenase coupled assay relative to control
Hexokinase-4 [4] = target: T2, Hexokinase-4; assay: Activation of human recombinant glucokinase using 5 mM glucose as substrate in presence of NAD+ by glucose 6-phosphate dehydrogenase coupled assay
[5] = Clearance in rat at 0.5 mg/kg, iv; format: ADME, organism-based; conditions: in vivo
[6] = target: T1, Hexokinase-4 (Homo sapiens); assay: Ratio of EC50 for activation of human recombinant glucokinase in presence of 4% HSA to EC50 for activation of human recombinant glucokinase in absence of 4% HSA
[7] = Solubility of the compound in PBS at pH 7.4; format: physicochemical; conditions: buffer
Rattus norvegicus [8] = assay: Antidiabetic activity in Sprague-Dawley rat assessed as decrease in blood glucose AUC at 100 mg/kg, po measured at 0.5 to 5 hrs by OGTT; format: functional
Rattus norvegicus [9] = assay: Antidiabetic activity in po dosed Sprague-Dawley rat assessed as decrease in blood glucose AUC measured at 0.5 to 5 hrs by OGTT; format: functional, organism-based
Rattus norvegicus [10] = assay: Antidiabetic activity in Sprague-Dawley rat assessed as decrease in blood glucose AUC at 30 mg/kg, po measured at 0.5 to 5 hrs by OGTT; format: functional
[11] = Volume of distribution at steady state in mouse at 1 mg/kg, iv; format: ADME, organism-based; conditions: in vivo, read-out: Vdss
[12] = Drug metabolism assessed as oxidation at THP ring site by metabolic ID study
[13] = Half life in mouse at 1 mg/kg, iv; format: ADME, organism-based; conditions: in vivo
[14] = Fraction unbound in mouse plasma; format: ADME, cell-free
Rattus norvegicus [15] = assay: Antidiabetic activity in Sprague-Dawley rat assessed as decrease in blood glucose AUC at 10 mg/kg, po measured at 0.5 to 5 hrs by OGTT; format: functional
[16] = Half life in rat at 0.5 mg/kg, iv; format: ADME, organism-based; conditions: in vivo
[17] = Oral bioavailability in rat at 2 mg/kg; format: ADME, organism-based; conditions: in vivo
[18] = AUC in rat at 2 mg/kg, po; format: ADME, organism-based; conditions: in vivo
[19] = Oral bioavailability in mouse at 5 mg/kg; format: ADME, organism-based; conditions: in vivo
[20] = Fraction unbound in human plasma; format: ADME, cell-free
Rattus norvegicus [21] = assay: Antidiabetic activity in Sprague-Dawley rat assessed as decrease in blood glucose AUC at 3 mg/kg, po measured at 0.5 to 5 hrs by OGTT; format: functional
[22] = Volume of distribution at steady state in rat at 0.5 mg/kg, iv; format: ADME, organism-based; conditions: in vivo, read-out: Vdss
[23] = Fraction unbound in rat plasma; format: ADME, cell-free
[24] = AUC in mouse at 5 mg/kg, po; format: ADME, organism-based; conditions: in vivo
[25] = Clearance in mouse at 1 mg/kg, iv; format: ADME, organism-based; conditions: in vivo
Mus musculus [26] = assay: Antidiabetic activity in po dosed ob/ob mouse diabetic model assessed as decrease in blood glucose AUC administered 30 mins prior to oral glucose load measured at 30 to 120 mins by OGTT; format: functional, organism-based
[27] = Intrinsic clearance in human liver microsomes; format: ADME, Microsome; conditions: read-out: CLH
Mus musculus [28] = assay: Antidiabetic activity in ob/ob mouse diabetic model assessed as decrease in blood glucose AUC at 30 mg/kg, po administered 30 mins prior to oral glucose load measured at 30 to 120 mins by OGTT; format: functional

| Structure (SMILES) | S0.5 [1] [mM] | EC50 (Hexokinase-4 [2]) [nM] | Ratio [3] | EC50 (Hexokinase-4 [4]) [nM] | also measured |
| --- | --- | --- | --- | --- | --- |
| CNC(=O)Nc1cc(Oc2cncc(OC)c2)c([C@H]2COCC[C@@H]2F)cn1 | 0.85 | 180 | 1 | 170 | clearance [5]: 26.7 mL/min/kg |
| CNC(=O)Nc1cc(Oc2cncc(C)c2)c([C@H]2C[C@H](O)C2)cn1 | 0.55 | 110 | 0.92 | 72 |  |
| CNC(=O)Nc1cc(Oc2cncc(C)c2)c(C(C)CO)cn1 (stereo not given) | 0.56 | 820 | 0.95 | 670 | Ratio EC50 [6]: 1 to 3 |
| CNC(=O)Nc1cc(Oc2cncc(C)c2)c([C@H]2C[C@](C)(O)C2)cn1 | 0.7 | 300 | 0.71 | 160 |  |
| CNC(=O)Nc1cc(Oc2cncc(OC)c2)c(C2CCOCC2)cn1 | 0.62 | 150 | 1 | 110 | clearance [5]: 46.7 mL/min/kg |
| CNC(=O)Nc1cc(Oc2cncc(OC)c2)c([C@@H]2COCC[C@@H]2O)cn1 (relative stereo) | 0.66 |  | 0.83 |  |  |
| CNC(=O)Nc1cc(Oc2cncc(OC)c2)c([C@@H]2CCCOC2)cn1 | 0.62 | 110 | 0.94 | 720 |  |
| CCOCCc1cnc(NC(=O)NC)cc1Oc1cncc(C)c1 | 0.59 | 110 | 0.84 | 98 | Ratio EC50 [6]: 1 to 3; solubility [7]: 500 µM (≈ 165 µg/mL) |
| CNC(=O)Nc1cc(Oc2cncc(OC)c2)c([C@H]2CCCOC2)cn1 | 0.65 | 220 | 1.1 | 160 | inhibition in vivo at 100 mg/kg (Rattus norvegicus [8]): 40%; inhibition (Rattus norvegicus [9]): Dose-dependent effect; inhibition in vivo at 30 mg/kg (Rattus norvegicus [10]): 20%; Vd [11]: 3.3 L/kg; Drug metabolism [12]: Metabolite detected; half-life [13]: 0.3 h; Fu [14]: 14%; inhibition in vivo at 10 mg/kg (Rattus norvegicus [15]): 13%; half-life [16]: 0.3 h; F [17]: 20%; AUC [18]: 3.64 µM·h; bioavailability [19]: 5%; Fu [20]: 16%; inhibition in vivo at 3 mg/kg (Rattus norvegicus [21]): 3%; Vd [22]: 0.66 L/kg; solubility [7]: 303 µM (≈ 109 µg/mL); Fu [23]: 28%; AUC [24]: 0.13 µM·h; clearance [25]: 157 mL/min/kg; CL [5]: 28.3 mL/min/kg |
| CNC(=O)Nc1cc(Oc2cncc(C)c2)c([C@H]2C[C@@H]2CO)cn1 (relative stereo) | 0.58 |  | 1 |  |  |
| CNC(=O)Nc1cc(Oc2cncc(OC)c2)c(C2=CCCOC2)cn1 | 0.69 | 130 | 0.99 | 400 | clearance [5]: 38.3 mL/min/kg |
| CNC(=O)Nc1cc(Oc2cncc(C)c2)c(CCCCO)cn1 | 0.54 | 56 | 0.87 | 37 | Ratio EC50 [6]: 1 to 3; solubility [7]: 500 µM (≈ 165 µg/mL) |
| CNC(=O)Nc1cc(Oc2cncc(C)c2)c(CCO)cn1 | 0.6 | 330 | 0.9 | 130 | Ratio EC50 [6]: 1 to 3; solubility [7]: 450 µM (≈ 136 µg/mL) |
| CNC(=O)Nc1cc(Oc2cncc(OC)c2)c([C@H]2COCCC2(F)F)cn1 | 0.51 | 990 | 0.89 | 530 |  |
| CNC(=O)Nc1cc(Oc2cncc(C)c2)c([C@@H]2CC[C@@H](O)C2)cn1 | 0.47 |  | 0.94 |  |  |
| CNC(=O)Nc1cc(Oc2cncc(C)c2)c(CCCO)cn1 | 0.55 | 100 | 0.96 | 66 | Ratio EC50 [6]: 1 to 3; solubility [7]: 500 µM (≈ 158 µg/mL) |
| CNC(=O)Nc1cc(Oc2cncc(C)c2)c([C@H]2C[C@@H](CO)C2)cn1 | 0.57 | 70 | 0.82 | 40 |  |
| CNC(=O)Nc1cc(Oc2cncc(C)c2)c([C@]2(O)C[C@H](O)C2)cn1 | 0.67 | 7500 | 0.88 | 6700 |  |
| CNC(=O)Nc1cc(Oc2cncc(C)c2)c(-c2ccc(OCC(C)(C)O)nc2)cn1 |  |  |  |  | half-life [16]: 2.3 h; AUC ([18]; read-out: AUC): 2.7 µM·h; Vd [22]: 2.7 L/kg; clearance [5]: 30 mL/min/kg |
| CNC(=O)Nc1cc(Oc2cncc(C)c2)c([C@H]2C[C@@H](C(C)(C)O)C2)cn1 | 0.68 | 120 | 0.54 | 51 |  |
| CNC(=O)Nc1cc(Oc2cncc(OC)c2)c(C2=CCOCC2)cn1 | 0.82 | 98 | 1 | 66 | clearance [5]: 41.7 mL/min/kg |
| CNC(=O)Nc1cc(Oc2cncc(C)c2)c([C@H]2CCC[C@H](O)C2)cn1 | 0.51 | 97 | 1 | 72 |  |
| CNC(=O)Nc1cc(Oc2cncc(OC)c2)c([C@@H]2CCOC2)cn1 | 0.53 | 190 | 1.1 | 110 |  |
| CNC(=O)Nc1cc(Oc2cncc(OC)c2)c([C@@H]2CCCN(C)C2)cn1 | 0.73 | 2900 | 0.78 | 2300 |  |
| CNC(=O)Nc1cc(Oc2cncc(C)c2)c([C@H]2C[C@@H](O)C2)cn1 | 0.66 | 140 | 0.97 | 110 | Vd [11]: 0.65 L/kg; inhibition (Mus musculus [26]): Dose-dependent effect; half-life [13]: 1.2 h; Fu [14]: 9.4%; half-life [16]: 3 h; bioavailability [17]: 39%; AUC ([18]; read-out: AUC): 1.84 µM·h; bioavailability [19]: 20%; Fu [20]: 25%; microsomal CLint [27]: < 14 µL/min/mg; Vd [22]: 1.2 L/kg; inhibition in vivo at 30 mg/kg (Mus musculus [28]): 32%; solubility [7]: 332 µM (≈ 109 µg/mL); AUC [24]: 3.69 µM·h; clearance [25]: 14.5 mL/min/kg; clearance [5]: 21.7 mL/min/kg |
| CNC(=O)Nc1cc(Oc2cncc(C)c2)c([C@H]2C[C@@H]2C(C)(C)O)cn1 (relative stereo) | 0.62 |  | 0.87 |  |  |
